Reference: US20240400560A1, “BICYCLIC HETEROCYCLIC DERIVATIVE HAVING VIRAL GROWTH INHIBITORY ACTIVITY AND PHARMACEUTICAL COMPOSITION CONTAINING SAME” (Shionogi & Co., Ltd., priority 2021, published 2024)
Like-named read-outs stand apart in the source and are kept apart here.

Legend:
SARS-CoV-2 = assay: Inhibitory activity of cytopathic effect (CPE) in HEK293T/ACE2-TMPRSS2 cells; type: cell-based; details: Severe acute respiratory syndrome coronavirus 2, HEK-293T, 72 h
SARS-CoV-2 3CL protease = SARS-CoV-2 3CL protease (Severe acute respiratory syndrome coronavirus 2, UniProt P0DTD1); assay: Inhibitory activity test against SARS-CoV-2 3CL proteases; type: biochemical
[1] = 50% SARS-CoV-2 infected cell death inhibitory concentration, HEK293T/ACE2-TMPRSS2 cells, CellTiter-Glo 2.0 after 3 days culture, read-out: EC50
[2] = read-out: IC50 (50% SARS-CoV-2 3CL protease inhibitory concentration)
[3] = HEK293T/ACE2-TMPRSS2 cells, cultured 3 days, CellTiter-Glo 2.0 luminescence, read-out: EC50 (50% SARS-CoV-2 infected cell death inhibitory concentration)

| SMILES | EC50 (SARS-CoV-2; [1]) [nM] | IC50 (SARS-CoV-2 3CL protease; [2]) [nM] | EC50 (SARS-CoV-2; [3]) [nM] | EC50 (SARS-CoV-2; read-out: EC50 (50% SARS-CoV-2 infected cell death inhibitory concentration)) [nM] | IC50 (SARS-CoV-2 3CL protease; IC50 (50% SARS-CoV-2 3CL protease inhibitory concentration)) [nM] |
| --- | --- | --- | --- | --- | --- |
| COc1cc(-c2c(Cl)ccc3c2CCN(C)C3=O)cc2c1c(=O)n(Cc1ncn(C)n1)c(=O)n2Cc1cc(F)c(F)c(F)c1 [Compound I-0867] | 47.9 | 1.2 |  |  |  |
| COc1nc2c(=O)n(Cc3ncn(C)n3)c(=O)n(Cc3cc(Cl)c(F)cc3C)c2cc1-c1ncc(F)cc1Cl [Compound I-0580] |  | < 100 | < 100 |  |  |
| COc1nc(N2C[C@@H](F)[C@@H](F)C2)cc2c1c(=O)n(-c1cnc3cc(F)ccn13)c(=O)n2-c1ccc(F)c(Cl)c1 [Compound I-0747] |  | < 100 | < 100 |  |  |
| COc1nc(N2CC[C@@H](O)C2)cc2c1c(=O)n(-c1cncc(Cl)c1)c(=O)n2-c1ccc(F)c(F)c1 [Compound I-0979] |  | < 100 | < 100 |  |  |
| Cn1cnc(Cn2c(=O)c3c(cc(-c4cc(C#N)ccc4Cl)c[n+]3[O-])n(Cc3cc(F)c(F)c(F)c3)c2=O)n1 [Compound I-0697] |  | 100 to 1000 | 1000 to 10000 |  |  |
| COc1nc(N2CC[C@@H](C#N)C2)cc2c1c(=O)n(-c1cncc(C#N)c1)c(=O)n2-c1ccc(F)c(Cl)c1 [Compound I-0939] |  | < 100 | < 100 |  |  |
| Cc1cncc(-n2c(=O)c3c(n(Cc4cc(F)c(F)c(F)c4)c2=O)CN(c2cc(C#N)ccc2Cl)CC3)c1 [Compound I-0658] |  | 100 to 1000 | 100 to 1000 |  |  |
| Cn1cnc(Cn2c(=O)c3c4nccnc4c(N4CC[C@@H](O)C4)cc3n(Cc3cc(F)c(F)c(F)c3)c2=O)n1 (racemic) [Compound I-0552] |  | < 100 | 100 to 1000 |  |  |
| [2H]C([2H])([2H])O[C@@H]1CCN(c2cc3c(c(OC)n2)c(=O)n(-c2cncc(Cl)c2C)c(=O)n3-c2ccc(F)c(Cl)c2)C1 (atropisomer, axis not shown) [Compound I-0947] | 6.34 | 2.3 |  |  |  |
| C=Cc1cc2c(c(OC)n1)c(=O)n(-c1cnc3cc(F)ccn13)c(=O)n2-c1ccc(F)c(F)c1 [Compound I-1047] |  | < 100 | 100 to 1000 |  |  |
| COc1nc(N2C[C@@H]3C[C@H]2CO3)cc2c1c(=O)n(-c1cnc3cc(F)ccn13)c(=O)n2-c1ccc(F)c(F)c1 [Compound I-0978] | 11.8 | 4.8 |  |  |  |
| Cn1cnc(Cn2c(=O)c3c4nccnc4c(N4CC(F)C4)cc3n(Cc3cc(F)c(F)c(Cl)c3)c2=O)n1 [Compound I-0573] |  | < 100 | < 100 |  |  |
| Cn1cnc(Cn2c(=O)c3c4nccnc4c(N4CCCC4)cc3n(Cc3cc(F)c(F)c(F)c3)c2=O)n1 [Compound I-0932] |  | < 100 | < 100 |  |  |
| Cn1cnc(Cn2c(=O)c3c4c(c(N5CCC(F)(F)CC5)cc3n(Cc3cc(F)c(F)c(F)c3)c2=O)CCO4)n1 [Compound I-0565] |  | < 100 | < 100 |  |  |
| N#Cc1ccc(Cl)c(-c2cc3c(c(=O)n(-c4cnc5ccccn45)c(=O)n3Cc3cc(F)c(F)c(F)c3)c3nccnc23)c1 [Compound I-0844] |  | < 100 | < 100 |  |  |
| COc1nc(N2CCC(F)(F)C2)cc2c1c(=O)n(-c1cnc3cc(F)c(F)cn13)c(=O)n2-c1ccc(F)c(Cl)c1 [Compound I-1009] |  | < 100 | < 100 |  |  |
| CNC(=O)[C@@H]1CCN(c2cc3c(c(OC)n2)c(=O)n(-c2cnc4cc(F)ccn24)c(=O)n3-c2ccc(F)c(Cl)c2)C1 [Compound I-1000] |  | < 100 | < 100 |  |  |
| N#Cc1ccc(Cl)c(-c2cc3c(c(=O)n(-c4cncc(Cl)c4)c(=O)n3Cc3cc(F)c(F)c(F)c3)c3occc23)c1 [Compound I-0863] | 52.5 | 5.3 |  |  |  |
| COc1nc(N2CC[C@H](OC)C2)cc2c1c(=O)n(-c1cnc3cc(F)ccn13)c(=O)n2-c1ccc(F)c(Cl)c1 [Compound I-0742] |  | < 100 | < 100 |  |  |

| SMILES | EC50 (SARS-CoV-2; [1]) [nM] | IC50 (SARS-CoV-2 3CL protease; [2]) [nM] | EC50 (SARS-CoV-2; [3]) [nM] | EC50 (SARS-CoV-2; read-out: EC50 (50% SARS-CoV-2 infected cell death inhibitory concentration)) [nM] | IC50 (SARS-CoV-2 3CL protease; IC50 (50% SARS-CoV-2 3CL protease inhibitory concentration)) [nM] |
| --- | --- | --- | --- | --- | --- |
| CNC(=O)c1ccc(Cl)c(-c2cc3c(nc2OC)c(=O)n(Cc2ncn(C)n2)c(=O)n3Cc2cc(F)c(F)c(Cl)c2)n1 [Compound I-0878] | 13.7 | 3.9 |  |  |  |
| Cn1cnc(Cn2c(=O)c3c4c(c(-c5cc(C#N)ccc5Cl)cc3n(Cc3cc(F)c(F)c(F)c3)c2=O)[C@@H](O)CO4)n1 [Compound I-0864] | 46.2 | 1.4 |  |  |  |
| COc1nc(N2C[C@@H]3C[C@H]2CO3)cc2c1c(=O)n(-c1cnc3cc(F)ccn13)c(=O)n2-c1ccc(F)c(C(F)F)c1 [Compound I-0960] |  | < 100 | < 100 |  |  |
| COc1nc(N2CC[C@@H](O)C2)cc2c1c(=O)n(-c1cncc(OC(F)F)c1)c(=O)n2-c1ccc(F)c(F)c1 [Compound I-1040] |  | < 100 | < 100 |  |  |
| O=c1c2c(=O)n(-c3cnc4cc(F)ccn34)c(=O)n(-c3ccc(F)c(Cl)c3)c2cc2n1CC[C@H]1CCCCN21 [Compound I-1063] |  | < 100 | 100 to 1000 |  |  |
| COc1nc(N2CC(F)C2)cc2c1c(=O)n(-c1cnc3cc(F)ccn13)c(=O)n2-c1ccc(F)c(Cl)c1 [Compound I-0987] |  | < 100 | < 100 |  |  |
| COc1nc(N2CC[C@@H](O)C2)cc2c1c(=O)n(-c1cnc3cc(F)c(F)cn13)c(=O)n2-c1ccc(F)c(Cl)c1 [Compound I-0967] |  | < 100 | < 100 |  |  |
| COc1nc(N2CCC(S(C)(=O)=O)C2)cc2c1c(=O)n(-c1cnc3cc(F)ccn13)c(=O)n2-c1ccc(F)c(Cl)c1 (stereo not shown) [Compound I-1007] |  | < 100 | 100 to 1000 |  |  |
| COc1nc(N2CC[C@@H](C#N)C2)cc2c1c(=O)n(-c1cncc(F)c1)c(=O)n2-c1ccc(F)c(F)c1 [Compound I-0990] | 8.89 | 6.8 |  |  |  |
| Cn1cnc(Cn2c(=O)c3c4ncn(C)c4c(N4CC[C@@H](F)C4)cc3n(Cc3cc(F)c(F)c(F)c3)c2=O)n1 (racemic) [Compound I-0554] | 2750 | 330 |  |  |  |
| Cn1cnc(Cn2c(=O)c3ncc(N4C[C@H]5C[C@@H]4CN5)nc3n(Cc3cc(F)c(F)c(F)c3)c2=O)n1 [Compound I-0684] | 4580 | 370 |  |  |  |
| COc1nc(N2CC[C@@H](NC(C)=O)C2)cc2c1c(=O)n(-c1cnc3cc(F)ccn13)c(=O)n2-c1ccc(F)c(Cl)c1 [Compound I-1031] |  | < 100 | 100 to 1000 |  |  |
| C=Cc1nc2c(=O)n(Cc3ncn(C)n3)c(=O)n(Cc3cc(F)c(F)c(F)c3)c2cc1-c1cc(C#N)ccc1Cl [Compound I-0705] |  | < 100 | < 100 |  |  |
| COc1nc(N2CCOC[C@H]2C)cc2c1c(=O)n(-c1cnc3cc(F)ccn13)c(=O)n2-c1ccc(F)c(Cl)c1 [Compound I-1054] |  | < 100 | < 100 |  |  |
| [2H]C([2H])([2H])O[C@@H]1CCN(c2cc3c(c(OC)n2)c(=O)n(-c2cncc(C#N)c2)c(=O)n3-c2ccc(F)c(F)c2)C1 [Compound I-1026] |  | < 100 | < 100 |  |  |
| Cn1c(-c2cc(C#N)ccc2Cl)cc2c(c1=O)c(=O)n(-c1cnc3ccc(F)cn13)c(=O)n2Cc1cc(F)c(F)c(F)c1 [Compound I-0681] |  | < 100 | < 100 |  |  |
| COc1ccc(Cl)c(-c2cc(OC)c3c(=O)n(Cc4ncn(C)n4)c(=O)n(Cc4cc(F)c(F)c(F)c4)c3c2)c1F [Compound I-0557] |  | < 100 | 100 to 1000 |  |  |
| COc1nc(N2[C@@H]3CC[C@H]2CNC3)cc2c1c(=O)n(-c1cnc3cc(F)c(Cl)cn13)c(=O)n2-c1ccc(F)c(Cl)c1 [Compound I-0950] |  |  |  | < 100 | < 100 |
| COc1nc2c(=O)n(Cc3ncn(C)n3)c(=O)n(Cc3cc(F)c(F)c(C#N)c3)c2cc1-c1cc(C#N)ccc1Cl [Compound I-0721] |  | < 100 | < 100 |  |  |
